Reference: patent US10100372B2, “Recombinant RSV reporter virus” (priority 2014, dated 2018)
Read-outs that look alike come from different tables or passages of the source. *1 amine or outer side, *2 acyl side, *3 side chain or, on linkers, in order; H or OH if unused. Where a SMILES comes first, the peptide text is derived from it. Bridges are numbered along the chain shown (N, C = ends). Roman numbers before positions name the chains, in order. [ ]: non-standard residue; d: D form. Actinocin(9to1) = Cc1c2oc3c(C)ccc(C(=O)[*:1])c3nc-2c(C(=O)[*:2])c(N)c1=O; NMeV = CN[C@H](C(=O)O)C(C)C; Sar = CNCC(=O)O

What was measured:
BEAS-2B cells = settings: highest concentration 10 μM, tox = less than 50% cell viability after 44 hours at ≤10 μM
recRSV A2-L19F-renilla = assay: microbe, parasite or virus in culture; assay type: cell-based; settings: BEAS-2B; for EC50: read-out: EC50 RSV A2-L19F-renilla
recIAV WSN-NanoLuc [1] = settings: for SI [CC50/EC50] IAV: SIIAV
[2] = system: recRSV A2-L19FD489E-fireSMASh; settings: for SI [CC50/EC50] RSV: SIRSV
in vitro = settings: human
recIAV WSN-NanoLuc [3] = assay: microbe, parasite or virus in culture; settings: Influenza A virus, BEAS-2B, read-out: EC50 IAV WSN-nanoLuc
[4] = system: recRSV A2-L19FD489E-fireSMASh; assay: microbe, parasite or virus in culture; settings: human respiratory syncytial virus, BEAS-2B, read-out: EC50 RSV A2-L19FD489E-fireSMASh
[5] = system: recRSV A2-L19FD489E-fireSMASh; assay: microbe, parasite or virus in culture; assay type: cell-based, Respiratory Syncytial Virus; settings: 384-well, four replicate screens, mean ± SD, BEAS-2B co-infection; for inhibition at 5 µM: human respiratory syncytial virus, read-out: % Inhibition (anti-RSV)
recIAV WSN-NanoLuc [6] = assay: microbe, parasite or virus in culture; assay type: cell-based, influenza virus IAV/WSN/33 (H1N1); settings: for inhibition at 5 µM: unidentified influenza virus, WSN, BEAS-2B, read-out: % Inhibition (anti-IAV)
RSV A2 strain = settings: cited from earlier work
RSV F protein = RSV F protein (Human respiratory syncytial virus, UniProt P12568); settings: resistance sites in the RSV F protein; cited from earlier work
[7] = human respiratory syncytial virus, 95% confidence interval in parentheses, inactive = less than 50% reduction of mean reporter signal
[8] = 95% confidence interval in parentheses, inactive = less than 50% reduction of mean reporter signal
[9] = BEAS-2B, 95% confidence interval in parentheses, inactive = less than 50% reduction of mean reporter signal
[10] = active concentrations based on in vitro assays, when available RSV A2 strain

RSV F protein, sequence (P12568 137-574 limits assumed): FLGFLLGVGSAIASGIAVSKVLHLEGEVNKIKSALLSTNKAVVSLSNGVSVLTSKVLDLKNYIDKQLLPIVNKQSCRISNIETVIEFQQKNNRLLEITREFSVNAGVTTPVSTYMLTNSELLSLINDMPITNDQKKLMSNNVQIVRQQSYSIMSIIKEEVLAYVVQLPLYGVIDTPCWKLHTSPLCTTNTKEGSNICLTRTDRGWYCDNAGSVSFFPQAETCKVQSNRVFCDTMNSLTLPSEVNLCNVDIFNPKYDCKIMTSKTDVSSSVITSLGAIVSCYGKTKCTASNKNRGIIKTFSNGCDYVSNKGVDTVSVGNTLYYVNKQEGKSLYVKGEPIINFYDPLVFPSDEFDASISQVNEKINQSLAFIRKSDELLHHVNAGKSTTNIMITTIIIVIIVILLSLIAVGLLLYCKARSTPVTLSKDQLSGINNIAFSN
RSV F protein, sequence (P12568 26-109 partner limits assumed): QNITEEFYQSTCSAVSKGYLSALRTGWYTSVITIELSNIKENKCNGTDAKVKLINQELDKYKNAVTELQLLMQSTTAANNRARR

In the case of CNc1ccc2oc(C[C@H]3O[C@@]4(CC[C@H]3C)O[C@H]([C@H](C)C(=O)c3ccc[nH]3)[C@H](C)C[C@H]4C)nc2c1C(=O)O [Calcimycin], the “CC50 (PrestoBlue cell viability)” value (BEAS-2B cells) is reported as “tox^d”.
For Nc1nc(N)c2nc(CNc3ccc(C(=O)N[C@@H](CCC(=O)O)C(=O)O)cc3)cnc2n1 [Aminopterin], the EC50 (recRSV A2-L19F-renilla; human respiratory syncytial virus) was 50 nM, the “SI [CC50/EC50] IAV” value (recIAV WSN-NanoLuc [1]) was “SIIAV 111” and the “SI [CC50/EC50] RSV” value [2] was “SIRSV 143”. The CC50 (in vitro) was 10000 nM, the EC50 (recIAV WSN-NanoLuc [3]) was 90 nM and the EC50 [4] was 70 nM.
COC(=O)C[C@](O)(CCCC(C)(C)O)C(=O)O[C@@H]1C(OC)=C[C@]23CCCN2CCc2cc4c(cc2[C@H]13)OCO4 [Homoharringtonine] showed an inhibition at 5 µM [5] of 98 ± 0.5% and an inhibition at 5 µM (recIAV WSN-NanoLuc [6]) of 90 ± 2.6%.
For Cc1c2oc3c(C)ccc(C(=O)N[C@@H]4C(=O)N[C@H](C(C)C)C(=O)N5CCC[C@H]5C(=O)N(C)CC(=O)N(C)[C@@H](C(C)C)C(=O)O[C@@H]4C)c3nc-2c(C(=O)N[C@@H]2C(=O)N[C@H](C(C)C)C(=O)N3CCC[C@H]3C(=O)N(C)CC(=O)N(C)[C@@H](C(C)C)C(=O)O[C@@H]2C)c(N)c1=O [Actinomycin D] (I: T[dV]P[Sar][NMeV] / II: T[dV]P[Sar][NMeV]; ester I:1-I:C, II:1-II:C; linker I:N-II:N via Actinocin(9to1)), the “% Inhibition (anti-RSV)” value ([5]; 5 μM) was 52 ± 9.6% and the “% Inhibition (anti-IAV)” value (recIAV WSN-NanoLuc [6]; 5 μM) was 104 ± 1.5%.
Work on CC(C)[C@]12O[C@H]1[C@@H]1O[C@]13[C@]1(O[C@H]1C[C@H]1C4=C(CC[C@@]13C)C(=O)OC4)[C@@H]2O [Triptolide] yielded an inhibition at 5 µM [5] of 1.5 ± 21%, an inhibition at 5 µM (recIAV WSN-NanoLuc [6]) of 103 ± 1.2% and an EC50 (recRSV A2-L19F-renilla; [7]) of 600 nM. For the same compound, the “SI (CC50/EC50) value at dose-response testing” value (recIAV WSN-NanoLuc [1]; virus not given) was “below two”, the CC50 (in vitro) was 300 nM and the EC50 (recIAV WSN-NanoLuc [3]) was 150 nM. For the same compound, the EC50 [4] was 400 nM.
With CC(=O)N[C@H]1[C@H]([C@H](O)[C@H](O)CO)OC(C(=O)O)=C[C@@H]1N=C(N)N [Zanamivir] the “EC50 RSV A2-L19F-renilla” value (recRSV A2-L19F-renilla; [8]) was “Inactive”, the “SI [CC50/EC50] IAV” value (recIAV WSN-NanoLuc [1]) was “SI^IAV >500” and the “selectivity for IAV reporter” value (recIAV WSN-NanoLuc [1]; dose-response counterscreen) was “selectively inhibited the IAV reporter”. For the same compound, the “EC50 RSV A2-L19FD489E-fireSMASh” value [2, 9] was “Inactive”, the CC50 (in vitro) was > 10000 nM and the EC50 (recIAV WSN-NanoLuc [3]) was 20 nM.
For CC1=C(/C=C/C(C)=C/C=C/C(C)=C/C(=O)Nc2ccc(O)cc2)C(C)(C)CCC1 [Fenretinide], the EC50 (recRSV A2-L19F-renilla; [7]) was 4800 nM, the “EC50 IAV WSN-nanoLuc” value (recIAV WSN-NanoLuc [1]; [9]) was “inactive^e” and the “effect on IAV reporter strain” value (recIAV WSN-NanoLuc [1]; highest concentration tested) was “unaffected”. The “SI [CC50/EC50] RSV” value [2] was “SIRSV >2.8”, the “selectivity for RSV reporter” value ([2]; dose-response counterscreen) was “selectively inhibited RSV” and the CC50 (in vitro) was > 10000 nM. It also gave an EC50 [4] of 3600 nM.
For CC(=O)[C@]1(O)Cc2c(O)c3c(c(O)c2[C@@H](O[C@H]2C[C@H](N)[C@H](O)[C@H](C)O2)C1)C(=O)c1ccccc1C3=O [Idarubicin], the inhibition at 5 µM [5] was 95 ± 1.3%, the inhibition at 5 µM (recIAV WSN-NanoLuc [6]) was 97 ± 1% and the “CC50 (PrestoBlue cell viability)” value (BEAS-2B cells) was “tox^d”.
Compound Cn1nnc2c(C(N)=O)ncn2c1=O [Temozolomide] has an inhibition at 5 µM [5] of 96 ± 1.3% and an inhibition at 5 µM (recIAV WSN-NanoLuc [6]) of 55 ± 3.2%.
In the case of CCOC(=O)C1=C(C)NC(C)=C(C(=O)OC)C1c1cccc([N+](=O)[O-])c1 (stereo not drawn) [Nitrendipine], the “EC50 RSV A2-L19F-renilla” value (recRSV A2-L19F-renilla; [8]) is reported as “inactive^e”, the “EC50 IAV WSN-nanoLuc” value (recIAV WSN-NanoLuc [1]; [9]) is reported as “inactive^e” and the “EC50 RSV A2-L19FD489E-fireSMASh” value [2, 9] is reported as “inactive^e”. For the same compound, the CC50 (in vitro) was > 10000 nM.
In the case of Nc1ccn([C@@H]2O[C@H](CO)[C@@H](O)C2(F)F)c(=O)n1 [Gemcitabine], the EC50 (recRSV A2-L19F-renilla; [7]) is reported as 50 nM, the “SI [CC50/EC50] IAV” value (recIAV WSN-NanoLuc [1]) is reported as “SIIAV >100” and the “SI [CC50/EC50] RSV” value [2] is reported as “SIRSV >111”. For the same compound, the CC50 (in vitro) was > 10000 nM, the EC50 (recIAV WSN-NanoLuc [3]) was 100 nM and the EC50 [4] was 90 nM.
In the case of Stattic, the EC50 (recRSV A2-L19F-renilla; [8]) is reported as 15100 nM, the “SI [CC50/EC50] IAV” value (recIAV WSN-NanoLuc [1]) is reported as “SIIAV 3” and the EC50 (recIAV WSN-NanoLuc [1]; read-out: EC50 IAV WSN-nanoLuc, BEAS-2B, 95% confidence interval in parentheses, inactive = less than 50% reduction of mean reporter signal) is reported as 3300 nM. It also gave an EC50 ([2]; read-out: EC50 RSV A2-L19FD489E-fireSMASh, BEAS-2B, 95% confidence interval in parentheses, inactive = less than 50% reduction of mean reporter signal) of 5900 nM.
For CCN(CC)CCNC(=O)c1c(C)[nH]c(/C=C2\C(=O)Nc3ccc(F)cc32)c1C [Sunitinib], the “CC50 (PrestoBlue cell viability)” value (BEAS-2B cells) was “tox^d”.
For Cc1ccc(O)c(Cn2c(NC3CCN(CCN)CC3)nc3c(C)cccc32)n1 [JNJ2408068], the EC50 (RSV A2 strain; [10]) is listed as 2.1 nM and the reported resistance sites (RSV F protein) is listed as “FK399I FD486N FE487D”.
For Cc1nnnn1/N=C/c1ccc(O)c(C(c2ccc(O)cc2)c2cc(/C=N/n3nnnc3C)ccc2O)c1 [VP-14637], the EC50 (RSV A2 strain; [10]) is listed as 1.4 nM and the reported resistance sites (RSV F protein) is listed as “FT400A FF488Y”.
For Cc1ccc(CCCO)c(NCc2ccc3nc(NCCCN4CCOCC4)n(Cc4nc(C)ccc4O)c3c2)c1 [TMC353121], the EC50 (RSV A2 strain) is listed as 0.13 nM and the reported resistance sites (RSV F protein) is listed as “FK394R FS398L FD486N”.
With Cn1c(=O)c(-c2c(Cl)cccc2Cl)cc2cnc(Nc3ccc(N4CCOCC4)cc3)nc21 [PD173952] the “CC50 (PrestoBlue cell viability)” value (BEAS-2B cells) was “tox^d”.
For Nc1nc2c(c(=O)[nH]1)C[C@@H](CCc1ccc(C(=O)N[C@@H](CCC(=O)O)C(=O)O)cc1)CN2 [Lometrexol], the “CC50 (PrestoBlue cell viability)” value (BEAS-2B cells) was “tox^d”.
In the case of ET-18-OCH3, the “EC50 RSV A2-L19F-renilla” value (recRSV A2-L19F-renilla; [8]) is reported as “inactive^e”, the “EC50 IAV WSN-nanoLuc” value (recIAV WSN-NanoLuc [1]; [9]) is reported as “inactive^e” and the “EC50 RSV A2-L19FD489E-fireSMASh” value [2, 9] is reported as “inactive^e”. The CC50 (BEAS-2B cells; read-out: CC50 (PrestoBlue cell viability)) was > 10000 nM.
